Laboratory results from patent US11753408B2, “Compounds and method for blocking transmission of malarial parasite” (The United States of America, as represented by the …, priority 2016, dated 2023).

How the values were obtained:
[1] = system: Stage III-V gametocytes (blood stage P. falciparum parasites); assay: In vitro drug activity on gametocytes (AlamarBlue viability assay); format: cell-based, Plasmodium falciparum; settings: read-out: Gametocyte EC50
How it was run: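 Viability was measured by AlamarBlue fluorescence (Ex 525/Em 598 nm) after 24 h dye incubation following 72 h compound exposure at 37° C, 5% CO2. Gametocytes, stage III–V from strains 3D7, HB3 and Dd2, were NAG/Percoll-enriched and plated at 20,000 cells/well.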

[2] = system: Asexual parasites of P. falciparum strain 3D7; assay: In vitro drug activity on asexual parasites (SYBR Green assay); format: cell-based, Plasmodium falciparum
How it was run: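 SYBR Green I fluorescence (ex 490, em 520 nm) was read after freeze-thaw lysis and 30 min staining at room temperature. Before that, drug-treated cultures (0.5% parasitemia, 2% hematocrit, DMSO ≤0.5%) were incubated 72 h, in duplicate.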

mTOR = mTOR (Homo sapiens, UniProt P42345); assay: mTOR activity (no method described); format: biochemical
[3] = Microsomal stability (rat); format: in vitro ADME; settings: rat microsomes
Solubility at pH 7.4 = format: physicochemical
PAMPA permeability = format: in vitro ADME

SMILES | EC50 [1] [nM] | EC50 [2] [nM] | mTOR (mTOR) [µM] | Microsomal Stability (rat) T1/2 [3] [min] | Sol @ pH 7.4 (Solubility at pH 7.4) [ug/mL] | PAMPA Permeability (PAMPA permeability) [×10⁻⁶ cm/s]
O=C(NC1CCC1)c1ccc(-n2c(=O)ccc3cnc4ccc(-c5ccc(Cl)cc5)cc4c32)cc1 [Compound 154] | 102 | 160 | 0.7657 | 8 | <1.0 | < 1
O=C(NC1CCCCC1)c1ccc(-n2c(=O)ccc3cnc4ccc(-c5ccc(Cl)cc5)cc4c32)cc1 [Compound 155] | 3110 | 1240 | 27.97 | 10.7 | <1.0 | < 1
O=C(NC1CCCC1)c1ccc(-n2c(=O)ccc3cnc4ccc(-c5ccc(Cl)cc5)cc4c32)cc1 [Compound 156] | 1580 | 687 | 67.63 | 5.6 | <1.0 | < 1
O=C(NC1CCCCCC1)c1ccc(-n2c(=O)ccc3cnc4ccc(-c5ccc(Cl)cc5)cc4c32)cc1 [Compound 157] | 7430 | 3350 | 50 | 6.8 | <1.0 | < 1
O=C(NC1CC1c1ccccc1)c1ccc(-n2c(=O)ccc3cnc4ccc(-c5ccc(Cl)cc5)cc4c32)cc1 (stereo not drawn) [Compound 158] | 3560 | 1560 | 7.899 | 18.8 | <1.0 | < 2.4
CN(C)Cc1ccc(-c2ccc3ncc4ccc(=O)n(-c5ccc(C(=O)N(CCO)CCO)cc5)c4c3c2)cc1 [Compound 160] | 270 | 96.1 | 9.278 | >30.0 | >79.0 | < 1
CN(C)Cc1ccc(-c2ccc3ncc4ccc(=O)n(-c5ccc(C(=O)N6CC7CN(C)CC7C6)cc5)c4c3c2)cc1 (stereo not drawn) [Compound 161] | 1540 | 512 | 47.05 | >30.0 | >82.0 | 5.4
CN(C)Cc1ccc(-c2ccc3ncc4ccc(=O)n(-c5ccc(C(=O)N6CCN(CCO)CC6)cc5)c4c3c2)cc1 [Compound 162] | 895 | 368 | 32.08 | >30.0 | >83.0 | < 1
CN(C)Cc1ccc(-c2ccc3ncc4ccc(=O)n(-c5ccc(C(=O)NC6CC6)cc5)c4c3c2)cc1 [Compound 163] | 246 | 93.9 | 6.497 | >30.0 | >72.0 | 232
CN(C)Cc1ccc(-c2ccc3ncc4ccc(=O)n(-c5ccc(C(=O)N6CCN(C)CC6)cc5)c4c3c2)cc1 [Compound 164] | 809 | 594 | 40.42 | >30.0 | >79.0 | 238
CN(C)Cc1ccc(-c2ccc3ncc4ccc(=O)n(-c5ccc(C(=O)N6CC7CC6CN7C)cc5)c4c3c2)cc1 (stereo not drawn) [Compound 165] | 4090 | 934 | 50 | >30.0 | >80.0 | 1.8
CN(C)Cc1ccc(-c2ccc3ncc4ccc(=O)n(-c5ccc(C(=O)N(C)C)cc5)c4c3c2)cc1 [Compound 166] | 179 | 72.7 | 8.762 | >30.0 | >70.0 | 427
CN(C)Cc1ccc(-c2ccc3ncc4ccc(=O)n(-c5ccc(C(=O)N6CCNCC6)cc5)c4c3c2)cc1 [Compound 167] | 469 | 223 | 22.69 | >30.0 | >76.0 | 1.5
N#Cc1ccc(-c2ccc3ncc4ccc(=O)n(-c5ccc(C(=O)N6CCOCC6)cc5)c4c3c2)cc1 [Compound 170] | 168 | 122 | 3.773 | 13.3 | 2.7 | 591
O=Cc1ccc(-c2ccc3ncc4ccc(=O)n(-c5ccc(C(=O)N6CCOCC6)cc5)c4c3c2)cn1 [Compound 171] | 240 | 47.5 | 0.1543 | 2.8 | >72.0 | 31.3
O=C(NC1C2CNCC21)c1ccc(-n2c(=O)ccc3cnc4ccc(-c5ccc(Cl)cc5)cc4c32)cc1 (stereo not drawn) [Compound 172] | 203 | 121 | 0.9678 | >30.0 | 2.3 | 12.3
CNC(=O)c1ccc(-n2c(=O)ccc3cnc4ccc(-c5ccc(CN(C)C)cc5)cc4c32)cc1 [Compound 174] | 265 | 133 | 7.636 | >30.00 | >68.00 | 49.9
Cc1cc(=O)n(-c2ccc(C(=O)NC3CC3)cc2)c2c1cnc1ccc(-c3ccc(Cl)cc3)cc12 [Compound 179] | 1700 | 451 | 100 | 19.4 | <1 | < 1
NCc1cccc(-c2ccc3ncc4ccc(=O)n(-c5ccc(C(=O)N6CCOCC6)cc5)c4c3c2)c1 [Compound 180] | 1820 | 931 | 2.454 | >30 | 43.7 | 3.8
NC1(c2ccc(-c3ccc4ncc5ccc(=O)n(-c6ccc(C(=O)N7CCOCC7)cc6)c5c4c3)cc2)CCC1 [Compound 181] | 1920 | 1580 | 0.8304 | >30 | 17.3 | 36.3
NCCc1ccc(-c2ccc3ncc4ccc(=O)n(-c5ccc(C(=O)N6CCOCC6)cc5)c4c3c2)cc1 [Compound 183] | 131 | 49.8 | 0.7945 | >30 | 28.4 | < 1
O=C(c1ccc(-n2c(=O)ccc3cnc4ccc(-c5ccc(CN6CCCC6)cc5)cc4c32)cc1)N1CCOCC1 [Compound 184] | 821 | 171 | 18.05 | >30 | 56.1 | 292
O=C(c1ccc(-n2c(=O)ccc3cnc4ccc(-c5ccc(CN6CCOCC6)cc5)cc4c32)cc1)N1CCOCC1 [Compound 185] | 1140 | 352 | 50 | 15.1 | 3.4 | 35.5
CN(C)C(=O)c1cccc(-n2c(=O)ccc3cnc4ccc(-c5ccc(N)nc5)cc4c32)c1 [Compound 332] | 1520 | 859 | 0.4949 | >30.0 | >64.0 | 31.9
